Reference: patent US20070149535A1, “Protein kinase inhibitors” (ONCALIS AG, priority 2004, published 2007)

Columns and labels:
Assay in all cases: Yeast growth assay, specificity profiling
Format in all cases: cell-based
Design in all cases: key: “−” indicates no growth restoration i.e. no activity against the particular kinase; “+”, “++”, and “+++” indicate activity detected by restoration of growth, classified into three categories of potency; “+”, “++”, and “+++” indicate activity detected by restoration of growth, classified into three categories of potency; “+”, “++”, and “+++” indicate activity detected by restoration of growth, classified into three categories of potency
Settings in all cases: 7 concentrations between 0.2 and 100 μM
PDGFRb = molecular target: T1, PDGFRb (Homo sapiens, UniProt P09619)
T1 construct: expressed in transfected cells; host or cells: yeast
T1 sequence (P09619 33-1106): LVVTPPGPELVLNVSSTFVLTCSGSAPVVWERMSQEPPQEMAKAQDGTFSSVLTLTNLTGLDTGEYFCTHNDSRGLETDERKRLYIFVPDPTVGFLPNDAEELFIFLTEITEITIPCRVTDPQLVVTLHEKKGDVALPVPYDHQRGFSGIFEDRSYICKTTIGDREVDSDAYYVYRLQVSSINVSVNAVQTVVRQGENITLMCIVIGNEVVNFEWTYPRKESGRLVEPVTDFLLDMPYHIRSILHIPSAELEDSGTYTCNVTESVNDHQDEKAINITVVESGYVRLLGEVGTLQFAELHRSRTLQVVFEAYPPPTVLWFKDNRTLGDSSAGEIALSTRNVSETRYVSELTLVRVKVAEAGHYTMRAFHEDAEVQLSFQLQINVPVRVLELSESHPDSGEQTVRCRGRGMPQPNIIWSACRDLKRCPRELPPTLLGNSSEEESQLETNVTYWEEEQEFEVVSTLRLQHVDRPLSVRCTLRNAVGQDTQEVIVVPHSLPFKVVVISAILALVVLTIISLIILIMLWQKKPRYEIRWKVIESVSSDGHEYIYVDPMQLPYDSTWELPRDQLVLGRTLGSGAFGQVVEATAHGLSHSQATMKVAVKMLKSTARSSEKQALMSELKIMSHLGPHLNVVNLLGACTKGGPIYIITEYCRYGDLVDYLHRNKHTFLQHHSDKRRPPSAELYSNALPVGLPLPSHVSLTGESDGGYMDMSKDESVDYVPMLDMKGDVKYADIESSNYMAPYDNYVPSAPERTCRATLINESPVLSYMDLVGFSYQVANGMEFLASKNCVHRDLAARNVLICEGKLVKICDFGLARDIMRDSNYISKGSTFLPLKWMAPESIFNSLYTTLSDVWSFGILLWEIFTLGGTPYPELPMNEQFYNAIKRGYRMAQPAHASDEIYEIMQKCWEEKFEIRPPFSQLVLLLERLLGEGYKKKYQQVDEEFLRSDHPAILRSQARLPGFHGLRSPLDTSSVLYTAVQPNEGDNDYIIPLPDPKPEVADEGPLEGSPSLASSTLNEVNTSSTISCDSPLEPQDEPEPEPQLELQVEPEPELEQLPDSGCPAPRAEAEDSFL
Method in brief: (§1)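 Yeast carrying the human RTK are shifted from glucose to galactose medium, inducing kinase expression that suppresses growth; inhibitors restore growth. Compounds are tested at 7 concentrations from 0.2 to 100 μM. Activity is scored −/+/++/+++ from the maximal growth restoration and the concentration at which it is reached.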

VEGFR1 = molecular target: T2, VEGFR1 (Homo sapiens, UniProt P17948)
T2 construct: expressed in transfected cells; host or cells: yeast
Method in brief: as §1

FGFR-4 = molecular target: T3, FGFR-4 (Homo sapiens, UniProt P22455)
T3 construct: expressed in transfected cells; host or cells: yeast
T3 sequence (P22455 22-802): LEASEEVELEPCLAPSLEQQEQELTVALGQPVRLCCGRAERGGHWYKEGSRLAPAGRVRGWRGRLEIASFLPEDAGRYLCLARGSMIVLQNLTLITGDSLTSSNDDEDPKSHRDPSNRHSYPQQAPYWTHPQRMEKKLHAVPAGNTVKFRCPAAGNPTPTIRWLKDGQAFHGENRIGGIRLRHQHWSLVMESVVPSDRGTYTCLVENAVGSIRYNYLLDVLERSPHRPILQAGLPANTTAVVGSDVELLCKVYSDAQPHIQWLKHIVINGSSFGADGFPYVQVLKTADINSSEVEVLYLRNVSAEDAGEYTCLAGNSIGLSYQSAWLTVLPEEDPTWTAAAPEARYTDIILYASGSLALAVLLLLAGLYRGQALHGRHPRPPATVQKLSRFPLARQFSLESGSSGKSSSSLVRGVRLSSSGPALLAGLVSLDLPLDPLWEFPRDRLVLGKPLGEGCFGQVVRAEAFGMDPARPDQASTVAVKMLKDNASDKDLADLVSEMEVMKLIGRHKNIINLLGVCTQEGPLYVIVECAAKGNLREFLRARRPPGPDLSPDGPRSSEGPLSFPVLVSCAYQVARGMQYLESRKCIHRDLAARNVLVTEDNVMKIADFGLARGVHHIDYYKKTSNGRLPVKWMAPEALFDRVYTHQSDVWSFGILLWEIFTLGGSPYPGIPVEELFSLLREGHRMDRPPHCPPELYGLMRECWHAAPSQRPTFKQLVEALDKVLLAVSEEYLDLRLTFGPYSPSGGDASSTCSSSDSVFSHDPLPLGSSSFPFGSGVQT
Method in brief: as §1

EphA2 = molecular target: T4, EphA2 (Homo sapiens, UniProt P29317)
T4 construct: expressed in transfected cells; host or cells: yeast
T4 sequence (P29317 24-976): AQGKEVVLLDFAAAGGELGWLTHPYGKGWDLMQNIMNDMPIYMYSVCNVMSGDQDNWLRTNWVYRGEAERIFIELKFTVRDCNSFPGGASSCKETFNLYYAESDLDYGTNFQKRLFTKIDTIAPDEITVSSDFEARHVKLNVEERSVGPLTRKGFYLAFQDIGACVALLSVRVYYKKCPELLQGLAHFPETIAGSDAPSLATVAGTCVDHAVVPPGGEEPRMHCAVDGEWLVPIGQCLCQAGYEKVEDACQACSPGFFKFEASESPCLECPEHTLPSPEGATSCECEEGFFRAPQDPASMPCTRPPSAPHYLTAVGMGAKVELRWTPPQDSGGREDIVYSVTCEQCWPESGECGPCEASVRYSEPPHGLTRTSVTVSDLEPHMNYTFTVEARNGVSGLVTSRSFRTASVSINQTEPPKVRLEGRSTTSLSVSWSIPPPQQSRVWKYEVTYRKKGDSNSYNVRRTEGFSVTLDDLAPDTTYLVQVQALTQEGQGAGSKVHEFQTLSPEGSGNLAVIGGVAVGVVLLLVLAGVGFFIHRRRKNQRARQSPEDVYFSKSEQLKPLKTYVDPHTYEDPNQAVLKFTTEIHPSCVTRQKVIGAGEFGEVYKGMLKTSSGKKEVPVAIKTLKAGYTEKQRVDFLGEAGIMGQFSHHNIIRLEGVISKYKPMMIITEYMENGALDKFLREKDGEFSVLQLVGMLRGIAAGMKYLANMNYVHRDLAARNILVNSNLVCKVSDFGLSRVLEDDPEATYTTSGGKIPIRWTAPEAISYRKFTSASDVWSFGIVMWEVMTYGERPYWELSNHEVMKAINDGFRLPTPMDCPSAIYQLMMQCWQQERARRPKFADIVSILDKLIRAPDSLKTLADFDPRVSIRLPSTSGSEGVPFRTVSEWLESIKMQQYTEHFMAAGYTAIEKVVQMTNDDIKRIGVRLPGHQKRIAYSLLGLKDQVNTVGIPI
Method in brief: as §1

TEK = molecular target: T5, TEK (Homo sapiens, UniProt Q02763)
T5 construct: expressed in transfected cells; host or cells: yeast
T5 sequence (Q02763 23-1124): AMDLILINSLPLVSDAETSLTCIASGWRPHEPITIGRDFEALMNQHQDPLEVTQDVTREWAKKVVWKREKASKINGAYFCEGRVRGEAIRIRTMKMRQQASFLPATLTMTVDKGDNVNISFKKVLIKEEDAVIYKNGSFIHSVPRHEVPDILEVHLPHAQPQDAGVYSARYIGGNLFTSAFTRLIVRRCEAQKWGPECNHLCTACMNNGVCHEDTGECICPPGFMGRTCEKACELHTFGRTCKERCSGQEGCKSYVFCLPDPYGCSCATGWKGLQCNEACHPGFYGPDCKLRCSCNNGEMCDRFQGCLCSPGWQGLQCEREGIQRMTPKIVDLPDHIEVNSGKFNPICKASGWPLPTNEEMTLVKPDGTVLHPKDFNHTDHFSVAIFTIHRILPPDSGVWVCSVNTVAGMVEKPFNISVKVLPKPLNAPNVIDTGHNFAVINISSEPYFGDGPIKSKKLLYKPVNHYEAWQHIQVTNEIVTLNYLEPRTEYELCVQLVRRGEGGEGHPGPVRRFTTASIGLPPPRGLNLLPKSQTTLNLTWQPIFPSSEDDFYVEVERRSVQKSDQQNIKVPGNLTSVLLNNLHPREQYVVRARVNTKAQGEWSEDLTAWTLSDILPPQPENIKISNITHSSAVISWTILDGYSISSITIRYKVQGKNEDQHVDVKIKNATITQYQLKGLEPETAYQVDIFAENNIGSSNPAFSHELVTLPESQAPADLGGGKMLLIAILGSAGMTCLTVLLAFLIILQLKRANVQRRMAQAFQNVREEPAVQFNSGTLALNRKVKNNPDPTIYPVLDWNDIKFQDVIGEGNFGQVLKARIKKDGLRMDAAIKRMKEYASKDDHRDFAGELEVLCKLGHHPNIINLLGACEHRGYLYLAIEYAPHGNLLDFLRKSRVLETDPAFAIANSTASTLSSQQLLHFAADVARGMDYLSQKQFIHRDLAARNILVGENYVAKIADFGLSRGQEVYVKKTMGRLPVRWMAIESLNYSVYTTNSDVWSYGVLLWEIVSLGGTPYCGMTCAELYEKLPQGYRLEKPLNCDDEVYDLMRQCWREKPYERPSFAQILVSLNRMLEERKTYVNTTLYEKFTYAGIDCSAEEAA
Method in brief: as §1

KIT = molecular target: T6, KIT (Homo sapiens, UniProt P10721)
T6 construct: expressed in transfected cells; host or cells: yeast
T6 sequence (P10721 26-976): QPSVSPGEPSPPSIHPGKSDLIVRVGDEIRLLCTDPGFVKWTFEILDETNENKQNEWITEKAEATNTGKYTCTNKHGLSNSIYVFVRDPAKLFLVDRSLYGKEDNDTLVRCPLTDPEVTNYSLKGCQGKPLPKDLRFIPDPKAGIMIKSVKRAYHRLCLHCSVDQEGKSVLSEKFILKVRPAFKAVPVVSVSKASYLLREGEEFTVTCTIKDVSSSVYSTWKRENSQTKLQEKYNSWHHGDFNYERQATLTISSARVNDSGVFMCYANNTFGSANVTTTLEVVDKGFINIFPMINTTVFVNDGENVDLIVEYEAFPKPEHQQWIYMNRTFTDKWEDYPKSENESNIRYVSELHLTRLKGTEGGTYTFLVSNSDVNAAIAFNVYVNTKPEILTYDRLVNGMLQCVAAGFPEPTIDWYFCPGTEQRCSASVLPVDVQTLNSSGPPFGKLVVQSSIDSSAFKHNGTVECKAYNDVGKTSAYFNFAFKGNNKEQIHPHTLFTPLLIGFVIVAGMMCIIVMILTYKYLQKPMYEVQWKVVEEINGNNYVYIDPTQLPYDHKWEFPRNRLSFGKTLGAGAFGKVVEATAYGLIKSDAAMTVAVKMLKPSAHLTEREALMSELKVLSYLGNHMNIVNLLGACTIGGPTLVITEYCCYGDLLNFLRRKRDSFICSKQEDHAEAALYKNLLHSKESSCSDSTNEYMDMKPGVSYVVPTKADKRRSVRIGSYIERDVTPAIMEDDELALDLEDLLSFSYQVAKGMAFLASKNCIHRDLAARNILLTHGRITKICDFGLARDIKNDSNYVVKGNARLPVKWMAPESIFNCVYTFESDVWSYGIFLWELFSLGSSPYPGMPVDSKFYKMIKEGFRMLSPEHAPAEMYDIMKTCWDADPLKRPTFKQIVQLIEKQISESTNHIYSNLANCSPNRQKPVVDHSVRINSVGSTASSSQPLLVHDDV
Method in brief: as §1

EphB2 = molecular target: T7, EphB2 (Homo sapiens, UniProt P29323)
T7 construct: expressed in transfected cells; host or cells: yeast
T7 sequence (P29323 19-1055): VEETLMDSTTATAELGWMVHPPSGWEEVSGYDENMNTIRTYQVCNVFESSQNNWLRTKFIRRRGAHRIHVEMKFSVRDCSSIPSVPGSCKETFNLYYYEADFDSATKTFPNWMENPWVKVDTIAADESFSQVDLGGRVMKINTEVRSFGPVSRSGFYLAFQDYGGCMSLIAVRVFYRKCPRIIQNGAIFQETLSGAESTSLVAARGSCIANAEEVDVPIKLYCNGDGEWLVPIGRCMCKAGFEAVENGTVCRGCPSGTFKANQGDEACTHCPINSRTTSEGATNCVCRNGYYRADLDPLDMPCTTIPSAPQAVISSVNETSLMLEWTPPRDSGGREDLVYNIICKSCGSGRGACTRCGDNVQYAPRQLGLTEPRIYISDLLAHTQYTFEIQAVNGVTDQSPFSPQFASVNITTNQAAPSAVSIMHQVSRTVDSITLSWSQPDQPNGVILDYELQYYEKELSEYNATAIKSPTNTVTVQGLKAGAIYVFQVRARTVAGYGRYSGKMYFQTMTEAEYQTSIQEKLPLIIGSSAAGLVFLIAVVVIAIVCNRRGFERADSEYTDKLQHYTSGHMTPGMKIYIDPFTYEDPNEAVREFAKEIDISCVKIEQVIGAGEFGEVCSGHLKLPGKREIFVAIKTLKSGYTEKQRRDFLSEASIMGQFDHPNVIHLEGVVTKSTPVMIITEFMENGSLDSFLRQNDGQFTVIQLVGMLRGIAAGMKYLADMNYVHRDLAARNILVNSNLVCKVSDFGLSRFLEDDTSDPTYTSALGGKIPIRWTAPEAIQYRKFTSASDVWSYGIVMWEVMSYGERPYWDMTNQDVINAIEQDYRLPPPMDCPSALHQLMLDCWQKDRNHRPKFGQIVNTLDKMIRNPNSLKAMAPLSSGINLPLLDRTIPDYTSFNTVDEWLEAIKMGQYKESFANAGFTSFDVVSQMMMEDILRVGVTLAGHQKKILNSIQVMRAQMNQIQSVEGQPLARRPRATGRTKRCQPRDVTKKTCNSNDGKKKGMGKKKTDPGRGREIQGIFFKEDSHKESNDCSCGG
Method in brief: as §1

`Cc1cccc(Nc2c(-c3ccccc3)nc3cnccn23)c1` [compound 34, (2-Phenyl-imidazo[1,2-a]pyrazin-3-yl)-m-tolyl-amine] was tested. Which PDGFRb growth restoration (PDGFRb) did it give?
Its PDGFRb growth restoration is “−”.

What about the VEGFR1 growth restoration (VEGFR1) of the same compound?
Its VEGFR1 growth restoration is “−”.

And the FGFR-4 growth restoration (FGFR-4)?
The FGFR-4 growth restoration was “−”.

And the EphA2 growth restoration (EphA2)?
The EphA2 growth restoration was “−”.

What about the TEK growth restoration (TEK) of the same compound?
Its TEK growth restoration is “−”.

And the KIT growth restoration (KIT)?
Its KIT growth restoration is “−”.

And the EphB2 growth restoration (EphB2)?
Its EphB2 growth restoration is “−”.

Which PDGFRb growth restoration (PDGFRb) does the source give for `c1ccc(Nc2c(-c3ccccc3)nc3cnccn23)cc1` [compound 23, Phenyl-(2-phenyl-imidazo[1,2-a]pyrazin-3-yl)-amine] here?
Its PDGFRb growth restoration is “−”.

And the VEGFR1 growth restoration (VEGFR1)?
The VEGFR1 growth restoration was “−”.

And the FGFR-4 growth restoration (FGFR-4)?
The FGFR-4 growth restoration was “−”.

And the EphA2 growth restoration (EphA2)?
Its EphA2 growth restoration is “+”.

And the TEK growth restoration (TEK)?
Its TEK growth restoration is “−”.

And the KIT growth restoration (KIT)?
Its KIT growth restoration is “−”.

What about the EphB2 growth restoration (EphB2) of the same compound?
Its EphB2 growth restoration is “++”.

How did the PDGFRb growth restoration (PDGFRb) turn out when `Brc1cccc(Nc2c(-c3ccccc3)nc3cnccn23)c1` [compound 14, (3-Bromo-phenyl)-(2-phenyl-imidazo[1,2-a]pyrazin-3-yl)-amine] was run?
The PDGFRb growth restoration was “−”.

What about the VEGFR1 growth restoration (VEGFR1) of the same compound?
Its VEGFR1 growth restoration is “−”.

And the FGFR-4 growth restoration (FGFR-4)?
Its FGFR-4 growth restoration is “−”.

And the EphA2 growth restoration (EphA2)?
The EphA2 growth restoration was “−”.

And the TEK growth restoration (TEK)?
Its TEK growth restoration is “−”.

What about the KIT growth restoration (KIT) of the same compound?
Its KIT growth restoration is “−”.

What about the EphB2 growth restoration (EphB2) of the same compound?
Its EphB2 growth restoration is “−”.

`COc1cccc(-c2nc3cnccn3c2Nc2cccc(Cl)c2)c1` [compound 7, (3-Chloro-phenyl)-[2-(3-methoxy-phenyl)-imidazo[1,2-a]pyrazin-3-yl]-amine] was tested. Which PDGFRb growth restoration (PDGFRb) did it give?
Its PDGFRb growth restoration is “−”.

And the VEGFR1 growth restoration (VEGFR1)?
The VEGFR1 growth restoration was “−”.

What about the FGFR-4 growth restoration (FGFR-4) of the same compound?
The FGFR-4 growth restoration was “−”.

What about the EphA2 growth restoration (EphA2) of the same compound?
The EphA2 growth restoration was “−”.

And the TEK growth restoration (TEK)?
Its TEK growth restoration is “−”.

What about the KIT growth restoration (KIT) of the same compound?
Its KIT growth restoration is “−”.

And the EphB2 growth restoration (EphB2)?
Its EphB2 growth restoration is “−”.

How did the PDGFRb growth restoration (PDGFRb) turn out when `Clc1cccc(Nc2c(-c3ccccc3)nc3cnccn23)c1` [compound 35, (3-Chloro-phenyl)-(2-phenyl-imidazo[1,2-a]pyrazin-3-yl)-amine] was run?
Its PDGFRb growth restoration is “−”.

What about the VEGFR1 growth restoration (VEGFR1) of the same compound?
The VEGFR1 growth restoration was “−”.

And the FGFR-4 growth restoration (FGFR-4)?
The FGFR-4 growth restoration was “−”.

And the EphA2 growth restoration (EphA2)?
Its EphA2 growth restoration is “−”.

What about the TEK growth restoration (TEK) of the same compound?
The TEK growth restoration was “−”.

What about the KIT growth restoration (KIT) of the same compound?
The KIT growth restoration was “−”.

What about the EphB2 growth restoration (EphB2) of the same compound?
Its EphB2 growth restoration is “−”.

`Cc1nccn2c(Nc3cccc(Cl)c3)c(-c3ccccc3)nc12` [compound 3, (3-Chloro-phenyl)-(8-methyl-2-phenyl-imidazo[1,2-a]pyrazin-3-yl)-amine] was tested. Which PDGFRb growth restoration (PDGFRb) did it give?
Its PDGFRb growth restoration is “−”.

What about the VEGFR1 growth restoration (VEGFR1) of the same compound?
The VEGFR1 growth restoration was “−”.

What about the FGFR-4 growth restoration (FGFR-4) of the same compound?
The FGFR-4 growth restoration was “−”.

And the EphA2 growth restoration (EphA2)?
Its EphA2 growth restoration is “−”.

And the TEK growth restoration (TEK)?
Its TEK growth restoration is “−”.

What about the KIT growth restoration (KIT) of the same compound?
The KIT growth restoration was “−”.

What about the EphB2 growth restoration (EphB2) of the same compound?
Its EphB2 growth restoration is “++”.
